{
  "source": "PubChem BioAssay (NCI)",
  "assay_in_all_cases": "inhibition of tumour cell growth, NCI panel, 48 h",
  "key": {"OVCAR-4 ovarian": {"system": "OVCAR-4 ovarian"}, "NCI-H226 lung": {"system": "NCI-H226 lung"}, "RXF 393 renal": {"system": "RXF 393 renal"}, "U251 CNS": {"system": "U251 CNS"}, "SK-OV-3 ovarian": {"system": "SK-OV-3 ovarian"}, "HCT-116 colon": {"system": "HCT-116 colon"}, "EKVX NSCLC": {"system": "EKVX NSCLC"}, "BT-549 breast": {"system": "BT-549 breast"}, "UO-31 renal": {"system": "UO-31 renal"}, "SNB-19 CNS": {"system": "SNB-19 CNS"}, "SK-MEL-28 melanoma": {"system": "SK-MEL-28 melanoma"}, "UACC-257 melanoma": {"system": "UACC-257 melanoma"}, "MCF7 breast": {"system": "MCF7 breast"}, "HT29 colon": {"system": "HT29 colon"}, "SK-MEL-5 melanoma": {"system": "SK-MEL-5 melanoma"}, "OVCAR-3 ovarian": {"system": "OVCAR-3 ovarian"}, "LOX IMVI melanoma": {"system": "LOX IMVI melanoma"}, "HS 578T breast": {"system": "HS 578T breast"}, "SK-MEL-2 melanoma": {"system": "SK-MEL-2 melanoma"}, "HOP-92 NSCLC": {"system": "HOP-92 NSCLC"}, "DU-145 prostate": {"system": "DU-145 prostate"}, "MDA-MB-231 breast": {"system": "MDA-MB-231 breast"}, "A498 renal": {"system": "A498 renal"}, "SNB-75 CNS": {"system": "SNB-75 CNS"}, "SR leukemia": {"system": "SR leukemia"}, "M14 melanoma": {"system": "M14 melanoma"}, "786-0 renal": {"system": "786-0 renal"}, "IGROV1 ovarian": {"system": "IGROV1 ovarian"}, "A549 NSCLC": {"system": "A549 NSCLC"}},
  "note": "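Interpolation was linear, between the two tested concentrations surrounding the appropriate level; five concentrations were tested over 48 hours in 96-well plates. GI50 = concentration required for 50% inhibition of growth. TGI denotes the concentration required for complete inhibition of growth.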",
  "data": [
    {"smiles": "CCCn1cnc2c(c1=N)C(c1ccc(Cl)cc1)c1sc3c(CC)cccc3c1O2", "note": "(stereo not drawn)", "values": [
      {"measurement": "GI50", "setting": "OVCAR-4 ovarian", "value": 1200, "unit": "nM"},
      {"measurement": "TGI", "setting": "OVCAR-4 ovarian", "value": 18200, "unit": "nM"},
      {"measurement": "GI50", "setting": "NCI-H226 lung", "value": 936, "unit": "nM"},
      {"measurement": "TGI", "setting": "NCI-H226 lung", "value": 10200, "unit": "nM"},
      {"measurement": "GI50", "setting": "RXF 393 renal", "value": 273, "unit": "nM"},
      {"measurement": "TGI", "setting": "RXF 393 renal", "value": 1310, "unit": "nM"},
      {"measurement": "GI50", "setting": "U251 CNS", "value": 505, "unit": "nM"},
      {"measurement": "TGI", "setting": "U251 CNS", "value": 10900, "unit": "nM"},
      {"measurement": "GI50", "setting": "SK-OV-3 ovarian", "value": 670, "unit": "nM"},
      {"measurement": "TGI", "setting": "SK-OV-3 ovarian", "value": 20800, "unit": "nM"},
      {"measurement": "GI50", "setting": "HCT-116 colon", "value": 446, "unit": "nM"},
      {"measurement": "TGI", "setting": "HCT-116 colon", "value": 10300, "unit": "nM"},
      {"measurement": "GI50", "setting": "EKVX NSCLC", "value": 1120, "unit": "nM"},
      {"measurement": "TGI", "setting": "EKVX NSCLC", "value": 16600, "unit": "nM"},
      {"measurement": "GI50", "setting": "BT-549 breast", "value": 1960, "unit": "nM"},
      {"measurement": "TGI", "setting": "BT-549 breast", "value": 16700, "unit": "nM"},
      {"measurement": "GI50", "setting": "UO-31 renal", "value": 712, "unit": "nM"},
      {"measurement": "TGI", "setting": "UO-31 renal", "value": 18300, "unit": "nM"},
      {"measurement": "GI50", "setting": "SNB-19 CNS", "value": 592, "unit": "nM"},
      {"measurement": "TGI", "setting": "SNB-19 CNS", "value": 15400, "unit": "nM"},
      {"measurement": "GI50", "setting": "SK-MEL-28 melanoma", "value": 2990, "unit": "nM"},
      {"measurement": "TGI", "setting": "SK-MEL-28 melanoma", "value": 22400, "unit": "nM"},
      {"measurement": "GI50", "setting": "UACC-257 melanoma", "value": 12200, "unit": "nM"},
      {"measurement": "TGI", "setting": "UACC-257 melanoma", "value": 33700, "unit": "nM"},
      {"measurement": "GI50", "setting": "MCF7 breast", "value": 354, "unit": "nM"},
      {"measurement": "TGI", "setting": "MCF7 breast", "value": 11700, "unit": "nM"},
      {"measurement": "GI50", "setting": "HT29 colon", "value": 725, "unit": "nM"},
      {"measurement": "TGI", "setting": "HT29 colon", "value": 6130, "unit": "nM"},
      {"measurement": "GI50", "setting": "SK-MEL-5 melanoma", "value": 683, "unit": "nM"},
      {"measurement": "TGI", "setting": "SK-MEL-5 melanoma", "value": 11500, "unit": "nM"},
      {"measurement": "GI50", "setting": "OVCAR-3 ovarian", "value": 347, "unit": "nM"},
      {"measurement": "TGI", "setting": "OVCAR-3 ovarian", "value": 1780, "unit": "nM"},
      {"measurement": "GI50", "setting": "LOX IMVI melanoma", "value": 706, "unit": "nM"},
      {"measurement": "TGI", "setting": "LOX IMVI melanoma", "value": 10900, "unit": "nM"},
      {"measurement": "GI50", "setting": "HS 578T breast", "value": 434, "unit": "nM"},
      {"measurement": "TGI", "setting": "HS 578T breast", "value": 5640, "unit": "nM"},
      {"measurement": "GI50", "setting": "SK-MEL-2 melanoma", "value": 925, "unit": "nM"},
      {"measurement": "TGI", "setting": "SK-MEL-2 melanoma", "value": 16000, "unit": "nM"},
      {"measurement": "GI50", "setting": "HOP-92 NSCLC", "value": 1250, "unit": "nM"},
      {"measurement": "TGI", "setting": "HOP-92 NSCLC", "value": 12800, "unit": "nM"},
      {"measurement": "GI50", "setting": "DU-145 prostate", "value": 615, "unit": "nM"},
      {"measurement": "TGI", "setting": "DU-145 prostate", "value": 11400, "unit": "nM"},
      {"measurement": "GI50", "setting": "MDA-MB-231 breast", "value": 1950, "unit": "nM"},
      {"measurement": "TGI", "setting": "MDA-MB-231 breast", "value": 13700, "unit": "nM"},
      {"measurement": "GI50", "setting": "A498 renal", "value": 359, "unit": "nM"},
      {"measurement": "TGI", "setting": "A498 renal", "value": 1830, "unit": "nM"},
      {"measurement": "GI50", "setting": "SNB-75 CNS", "value": 202, "unit": "nM"},
      {"measurement": "TGI", "setting": "SNB-75 CNS", "value": 878, "unit": "nM"},
      {"measurement": "GI50", "setting": "SR leukemia", "value": 342, "unit": "nM"},
      {"measurement": "TGI", "setting": "SR leukemia", "value": 5010, "unit": "nM"},
      {"measurement": "GI50", "setting": "M14 melanoma", "value": 588, "unit": "nM"},
      {"measurement": "TGI", "setting": "M14 melanoma", "value": 9750, "unit": "nM"},
      {"measurement": "GI50", "setting": "786-0 renal", "value": 555, "unit": "nM"},
      {"measurement": "TGI", "setting": "786-0 renal", "value": 12900, "unit": "nM"},
      {"measurement": "GI50", "setting": "IGROV1 ovarian", "value": 607, "unit": "nM"},
      {"measurement": "TGI", "setting": "IGROV1 ovarian", "value": 11800, "unit": "nM"},
      {"measurement": "GI50", "setting": "A549 NSCLC", "value": 824, "unit": "nM"},
      {"measurement": "TGI", "setting": "A549 NSCLC", "value": 14200, "unit": "nM"}
    ]}
  ]
}
